Laboratory results reported in patent US20060228297A1, “Thorium-227 for use in radiotherapy of soft tissue disease” (priority 2003, published 2006).

Assays:
[1] = system: patients with metastases to the skeleton from breast or prostate cancer; assay: Phase IA/IB trials of ^223Ra, single and repeated injection, safety and tolerance (Example 9); format: in vivo, humans
Method: The experiment of Example 8 was carried out with dose metering calibrated to a high accuracy. Dose levels measured at 46, 93, 163, 213, and 250 kBq/kg of ^223Ra were given as single doses and a multiple-dose schedule was also introduced.
Thirty-one patients with metastases to the skeleton, 10 from breast- and 21 from prostate cancer, all, were enrolled in phase IA and phase IB trials. The prostate cancer patients were from 60 to 85 years and had body weights ranging from 50 to 120 kg. All of them had progressive disease considered hormone refractory. The breast cancer patients were from 40 to 70 years, with bodyweight from 50 to 95 kg. All of them were progressing second hormonal and/or chemotherapy. The primary objective was to evaluate the safety and tolerance of ^223Ra.
The follow up period was 8 weeks.
In the single injection trial the following average dose levels were used; 46, 93, 163, 213, and 250-kBq kg^−1 bodyweight (b.w.). Five patients were included at each dose level. Fifteen prostate- and 10 breast cancer patients were included.
In the repeated injection schedule, 6 patients, all with prostate cancer, were included. Three patients were scheduled to receive 5 doses, each of 50 kBq kg^−1 b.w. at three-weeks intervals, and three patients to receive 2 doses, each of 125 kBq kg−1 b.w. at six-weeks intervals.
Radium-223 was produced from ^227Ac/^227Th and purified using Ac-resin to immobilize ^227Ac and ^227Th as described in WO0040275. The product concentrate, i.e., dissolved ^223RaCl2 was tested for radionuclide purity by gamma spectroscopy before further use. A concentrate of the ^223Ra in NaCl and Na Citrate was sent sterile production. Isotonicity, pH, and activity concentration were adjusted; a sample kept aside for pathogen and pyrogen testing, and the final product was filled in sterile vials that were subsequently capped with a sealed rubber membrane penetrable to syringes. The vials were put into lead containers and shipped to the hospitals.
The effect of the radium-223 on neutrophil cell fractions, platelets, white-blood-cell count and Heamoglobin were monitored to give a wide ranging measure of haematological toxicity. […] The results were expressed as the number of patients in the study showing a particular level of toxicity on the CTC Toxicity Grade scale and are set out in Table 6 below.

[2] = then concentrated in the skeleton or excreted via intestinal and renal routes; cited from earlier work
[3] = Multiple dosing 2 × 125 kBq/kg, n = 3
[4] = Multiple dosing 5 × 50 kBq/kg, n = 3

[223Ra] [^223Ra, radium-223]
Haemoglobin, CTC Grade 0: number of patients [1, 3]: 0 | Haemoglobin, CTC Grade 1: number of patients [1, 3]: 1 | Haemoglobin, CTC Grade 2: number of patients [1, 3]: 2 | Neutrophile, CTC Grade 0: number of patients [1, 3]: 3 | Neutrophile, CTC Grade 1: number of patients [1, 3]: 0 | Neutrophile, CTC Grade 2: number of patients [1, 3]: 0 | Neutrophile, CTC Grade 3: number of patients [1, 3]: 0 | Platelets, CTC Grade 0: number of patients [1, 3]: 3 | Platelets, CTC Grade 1: number of patients [1, 3]: 0 | W B C, CTC Grade 0: number of patients [1, 3]: 2 | W B C, CTC Grade 1: number of patients [1, 3]: 0 | W B C, CTC Grade 2: number of patients [1, 3]: 1 | W B C, CTC Grade 3: number of patients [1, 3]: 0 | Haemoglobin, CTC Grade 0: number of patients [1, 4]: 0 | Haemoglobin, CTC Grade 1: number of patients [1, 4]: 2 | Haemoglobin, CTC Grade 2: number of patients [1, 4]: 1 | Neutrophile, CTC Grade 0: number of patients [1, 4]: 1 | Neutrophile, CTC Grade 1: number of patients [1, 4]: 0 | Neutrophile, CTC Grade 2: number of patients [1, 4]: 2 | Neutrophile, CTC Grade 3: number of patients [1, 4]: 0 | Platelets, CTC Grade 0: number of patients [1, 4]: 2 | Platelets, CTC Grade 1: number of patients [1, 4]: 1 | W B C, CTC Grade 0: number of patients [1, 4]: 1 | W B C, CTC Grade 1: number of patients [1, 4]: 0 | W B C, CTC Grade 2: number of patients [1, 4]: 2 | W B C, CTC Grade 3: number of patients [1, 4]: 0 | Haemoglobin, CTC Grade 0: number of patients ([1]; Re-treatment, n = 2): 1 | Haemoglobin, CTC Grade 1: number of patients ([1]; Re-treatment, n = 2): 1 | Haemoglobin, CTC Grade 2: number of patients ([1]; Re-treatment, n = 2): 0 | Neutrophile, CTC Grade 0: number of patients ([1]; Re-treatment, n = 2): 2 | Neutrophile, CTC Grade 1: number of patients ([1]; Re-treatment, n = 2): 0 | Neutrophile, CTC Grade 2: number of patients ([1]; Re-treatment, n = 2): 0 | Neutrophile, CTC Grade 3: number of patients ([1]; Re-treatment, n = 2): 0 | Platelets, CTC Grade 0: number of patients ([1]; Re-treatment, n = 2): 2 | Platelets, CTC Grade 1: number of patients ([1]; Re-treatment, n = 2): 0 | W B C, CTC Grade 0: number of patients ([1]; Re-treatment, n = 2): 2 | W B C, CTC Grade 1: number of patients ([1]; Re-treatment, n = 2): 0 | W B C, CTC Grade 2: number of patients ([1]; Re-treatment, n = 2): 0 | W B C, CTC Grade 3: number of patients ([1]; Re-treatment, n = 2): 0 | Haemoglobin, CTC Grade 0: number of patients ([1]; Single dose 46 kBq/kg, n = 5): 4 | Haemoglobin, CTC Grade 1: number of patients ([1]; Single dose 46 kBq/kg, n = 5): 0 | Haemoglobin, CTC Grade 2: number of patients ([1]; Single dose 46 kBq/kg, n = 5): 1 | Neutrophile, CTC Grade 0: number of patients ([1]; Single dose 46 kBq/kg, n = 5): 4 | Neutrophile, CTC Grade 1: number of patients ([1]; Single dose 46 kBq/kg, n = 5): 0 | Neutrophile, CTC Grade 2: number of patients ([1]; Single dose 46 kBq/kg, n = 5): 1 | Neutrophile, CTC Grade 3: number of patients ([1]; Single dose 46 kBq/kg, n = 5): 0 | Platelets, CTC Grade 0: number of patients ([1]; Single dose 46 kBq/kg, n = 5): 5 | Platelets, CTC Grade 1: number of patients ([1]; Single dose 46 kBq/kg, n = 5): 0 | W B C, CTC Grade 0: number of patients ([1]; Single dose 46 kBq/kg, n = 5): 4 | W B C, CTC Grade 1: number of patients ([1]; Single dose 46 kBq/kg, n = 5): 0 | W B C, CTC Grade 2: number of patients ([1]; Single dose 46 kBq/kg, n = 5): 1 | W B C, CTC Grade 3: number of patients ([1]; Single dose 46 kBq/kg, n = 5): 0 | Haemoglobin, CTC Grade 0: number of patients ([1]; Single dose 93 kBq/kg, n = 5): 2 | Haemoglobin, CTC Grade 1: number of patients ([1]; Single dose 93 kBq/kg, n = 5): 2 | Haemoglobin, CTC Grade 2: number of patients ([1]; Single dose 93 kBq/kg, n = 5): 1 | Neutrophile, CTC Grade 0: number of patients ([1]; Single dose 93 kBq/kg, n = 5): 3 | Neutrophile, CTC Grade 1: number of patients ([1]; Single dose 93 kBq/kg, n = 5): 1 | Neutrophile, CTC Grade 2: number of patients ([1]; Single dose 93 kBq/kg, n = 5): 1 | Neutrophile, CTC Grade 3: number of patients ([1]; Single dose 93 kBq/kg, n = 5): 0 | Platelets, CTC Grade 0: number of patients ([1]; Single dose 93 kBq/kg, n = 5): 5 | Platelets, CTC Grade 1: number of patients ([1]; Single dose 93 kBq/kg, n = 5): 0 | W B C, CTC Grade 0: number of patients ([1]; Single dose 93 kBq/kg, n = 5): 4 | W B C, CTC Grade 1: number of patients ([1]; Single dose 93 kBq/kg, n = 5): 0 | W B C, CTC Grade 2: number of patients ([1]; Single dose 93 kBq/kg, n = 5): 1 | W B C, CTC Grade 3: number of patients ([1]; Single dose 93 kBq/kg, n = 5): 0 | Haemoglobin, CTC Grade 0: number of patients ([1]; Single dose 163 kBq/kg, n = 5): 4 | Haemoglobin, CTC Grade 1: number of patients ([1]; Single dose 163 kBq/kg, n = 5): 0 | Haemoglobin, CTC Grade 2: number of patients ([1]; Single dose 163 kBq/kg, n = 5): 1 | Neutrophile, CTC Grade 0: number of patients ([1]; Single dose 163 kBq/kg, n = 5): 3 | Neutrophile, CTC Grade 1: number of patients ([1]; Single dose 163 kBq/kg, n = 5): 0 | Neutrophile, CTC Grade 2: number of patients ([1]; Single dose 163 kBq/kg, n = 5): 1 | Neutrophile, CTC Grade 3: number of patients ([1]; Single dose 163 kBq/kg, n = 5): 1 | Platelets, CTC Grade 0: number of patients ([1]; Single dose 163 kBq/kg, n = 5): 4 | Platelets, CTC Grade 1: number of patients ([1]; Single dose 163 kBq/kg, n = 5): 1 | W B C, CTC Grade 0: number of patients ([1]; Single dose 163 kBq/kg, n = 5): 3 | W B C, CTC Grade 1: number of patients ([1]; Single dose 163 kBq/kg, n = 5): 0 | W B C, CTC Grade 2: number of patients ([1]; Single dose 163 kBq/kg, n = 5): 1 | W B C, CTC Grade 3: number of patients ([1]; Single dose 163 kBq/kg, n = 5): 1 | Haemoglobin, CTC Grade 0: number of patients ([1]; Single dose 213 kBq/kg, n = 5): 2 | Haemoglobin, CTC Grade 1: number of patients ([1]; Single dose 213 kBq/kg, n = 5): 2 | Haemoglobin, CTC Grade 2: number of patients ([1]; Single dose 213 kBq/kg, n = 5): 1 | Neutrophile, CTC Grade 0: number of patients ([1]; Single dose 213 kBq/kg, n = 5): 2 | Neutrophile, CTC Grade 1: number of patients ([1]; Single dose 213 kBq/kg, n = 5): 1 | Neutrophile, CTC Grade 2: number of patients ([1]; Single dose 213 kBq/kg, n = 5): 2 | Neutrophile, CTC Grade 3: number of patients ([1]; Single dose 213 kBq/kg, n = 5): 0 | Platelets, CTC Grade 0: number of patients ([1]; Single dose 213 kBq/kg, n = 5): 5 | Platelets, CTC Grade 1: number of patients ([1]; Single dose 213 kBq/kg, n = 5): 0 | W B C, CTC Grade 0: number of patients ([1]; Single dose 213 kBq/kg, n = 5): 2 | W B C, CTC Grade 1: number of patients ([1]; Single dose 213 kBq/kg, n = 5): 0 | W B C, CTC Grade 2: number of patients ([1]; Single dose 213 kBq/kg, n = 5): 2 | W B C, CTC Grade 3: number of patients ([1]; Single dose 213 kBq/kg, n = 5): 1 | Haemoglobin, CTC Grade 0: number of patients ([1]; Single dose 250 kBq/kg, n = 5): 2 | Haemoglobin, CTC Grade 1: number of patients ([1]; Single dose 250 kBq/kg, n = 5): 3 | Haemoglobin, CTC Grade 2: number of patients ([1]; Single dose 250 kBq/kg, n = 5): 0 | Neutrophile, CTC Grade 0: number of patients ([1]; Single dose 250 kBq/kg, n = 5): 2 | Neutrophile, CTC Grade 1: number of patients ([1]; Single dose 250 kBq/kg, n = 5): 0 | Neutrophile, CTC Grade 2: number of patients ([1]; Single dose 250 kBq/kg, n = 5): 2 | Neutrophile, CTC Grade 3: number of patients ([1]; Single dose 250 kBq/kg, n = 5): 1 | Platelets, CTC Grade 0: number of patients ([1]; Single dose 250 kBq/kg, n = 5): 2 | Platelets, CTC Grade 1: number of patients ([1]; Single dose 250 kBq/kg, n = 5): 3 | W B C, CTC Grade 0: number of patients ([1]; Single dose 250 kBq/kg, n = 5): 2 | W B C, CTC Grade 1: number of patients ([1]; Single dose 250 kBq/kg, n = 5): 0 | W B C, CTC Grade 2: number of patients ([1]; Single dose 250 kBq/kg, n = 5): 2 | W B C, CTC Grade 3: number of patients ([1]; Single dose 250 kBq/kg, n = 5): 1 | Reversible diarrhoea, grades 1 and 2, share of patients ([1]; all dose groups, total): approximately 50% | Dose-limiting toxicity ([1]; dose escalating part, single dose 46 to 250 kBq/kg): not observed | Thrombocytes, toxicity grade ([1]; even at the two highest dose levels): 1 grade | Vomiting, number of patients ([1]; highest dose group): four | Nausea, number of patients ([1]; highest dose level): four | Neutropenia of maximum grade 3, number of patients ([1]; single injection trial): two | Reversible myelosuppression, nadir after injection ([1]; single injection, recovery during the follow-up period): 2-3 weeks | Additional toxicity related to the repetition of the treatment ([1]; three patients in the 50×5 schedule): did not experience any additional toxicity | Blood clearance [2]: very rapidly
